In US20240159744A1, “COLON CANCER DIAGNOSIS OR DETECTION COMPOSITION FOR PREDICTING RESPONSE TO DRUG, AND COMPOSITION FOR PREVENTING OR TREATING COLON CANCER” (priority 2020, published 2024):

Assays:
HCT-8-bearing mice = assay: Antitumor effect of EGF-prodrug in vivo; conditions: 1 mg/kg of DOX, 6 times every 3 days, 21 days
Method: 2×10^6 HCT-15 cells or HCT-8 cells were subcutaneously inoculated to Balb/c-nude mice. […] The injection was carried out into the tail vein every 3 days for a total of 6 times. Antitumor effect was evaluated by sacrificing the mice to which the HCT-15 or HCT-8 cells were administered and measuring the volume of tumor tissue. The volume of the tumor tissue was calculated every day or every other day by 0.53×length×width^2. Tumor growth was monitored for 21 days. After sacrificing the mice, the HCT-15 or HCT-8 tumor tissues were collected. The dissected tumors were imaged and fixed by treating with 4% paraformaldehyde. […] The sections were used for histological or pathological investigation. They were stained with H&E for visualization and subjected to TUNEL assay using a […] TUNEL system (Promega, WI, USA) for investigation of the apoptosis of cancer cells. The tumor tissues stained with H&E and TUNEL were observed using a BX51 optical microscope (Olympus, Tokyo, Japan) and a TCS SP8 confocal laser microscope.

[1] = test system: HCT-15, HT29, Lovo and HCT-8 cells; assay: In-vitro toxicity test (CCK-8), statements over all four cell lines; assay type: cell-based, human; conditions: 48 hours
Method: First, HCT-15 cells were plated on a 96-well plate at a density of 5×10^3 cell/well. […] 48 hours later, the medium was removed and the cells were treated with a cell counting kit (CCK-8, Dojindo, Japan) at 37° C. for 1 hour. Absorbance was measured at 450 nm using a VERSAmax™ microplate reader (Molecular Devices Corp., CA, USA). The cell viability of each group (n=5) was represented as a percentage of normal untreated cells (control group). […] After removing the medium, cell viability was evaluated by CCK-8 assay.

[2] = test system: HCT-15 tumor-bearing mice; assay: Tumor-targeting ability and biodistribution of DOX, C-prodrug, EGF-prodrug; assay type: in vivo; conditions: intravenous, 24 hours
Excerpt: In addition, the tumor-targeting ability of DOX, the C-prodrug and the EGF-prodrug was compared.

[3] = test system: HCT-15 tumor-bearing mice; assay: In-vivo and ex-vivo fluorescence imaging of EGF-Cy5.5, C-probe, EGF-probe; conditions: cryosections, confocal
Method: The biodistribution of the EGF-probe intravenously administered to mice having HCT-15, HT29, Lovo or HCT-8 tumors was evaluated. First of all, 6-week-old Balb/c-nude mice (Nara-Biotec, Gyeonggi-do, Korea) were prepared and each cell was subcutaneously inoculated into the nude mice at the right flank at a concentration of 2×10^6 cells/mouse to generate tumors. […] At 24 hours after the administration of the EGF-probe, the mouse was imaged using an IVIS fluorescence imaging system. […] IVIS fluorescence imaging was conducted at 24 hours after the administration. Major organs and tumors were obtained and imaged with an IVIS imaging system. The fluorescence intensity of the organs and tumors was analyzed using the Living Image 2.50 software. […] The tumor tissue sections were counter-stained with DAPI and visualized with a confocal microscope.

Row | Compound | tumor size (HCT-8-bearing mice) | cytotoxicity versus concentration [1] | ex-vivo distribution in organs and tumor [2] | fluorescence of tumor tissue sections [3]
1 | (Ac)CGFLG-DOX [C-prodrug] | not controlled significantly |  |  | 
2 | COc1cccc2c1C(=O)c1c(O)c3c(c(O)c1C2=O)C[C@@](O)(C(=O)CO)C[C@@H]3O[C@H]1C[C@H](N)[C@H](O)[C@H](C)O1.Cl [DOX, doxorubicin hydrochloride] | not controlled significantly | increased with the concentration | significant amounts were accumulated also in the lung, liver and kidney | 
3 | Cy5.5-GFLGGK(BHQ-3)GG-COOH [C-probe] |  |  |  | much weaker fluorescence signals
